Assay results published in patent US11685714B2, “Prodrugs of cytotoxic active agents having enzymatically cleavable groups” (BAYER PHARMA AKTIENGESELLSCHAFT, priority 2016, dated 2023).
pIC50: −log10 of the molar value.

Key:
[1] = system: SK-HEP-1: human liver cell cancer line; assay: MTT assay on SK-HEP-1; format: cell-based; settings: SK-HEP1, 96 h, growth inhibition, 96 h incubation
Protocol: (§1) The analysis of the cytotoxic effects of the ADCs was carried out with various cell lines:
(§2) The cells were cultivated by the standard method as stated by the American Tissue Culture Collection (ATCC) or the Leibniz-lnstitut DSMZ-Deutsche Sammlung von Mikroorganismen und Zellkulturen GmbH (DSMZ) for the cell lines in question.
(§3) The cells were then incubated in an incubator at 37° C. and 5% carbon dioxide. […] To this end, the MTT reagent was incubated with the cells for 4 h, followed by lysis of the cells overnight by addition of the detergent. […] The measured data were used to calculate the ICo50 of the growth inhibition using the DRC (dose response curve). The proliferation of cells which were not treated with test substance but were otherwise identically treated was defined as the 100% figure.

[2] = system: NCI-H292: human mucoepidermoid lung carcinoma cells; assay: MTT assay on NCI-H292; format: cell-based; settings: NCI-H292, 96 h, growth inhibition, 96 h incubation
Protocol: as §1, §2, §3

[3] = biological target: T1, motor domain of the human kinesin spindle protein KSP/Eg5 (Homo sapiens, UniProt P52732); assay: Inhibition of the kinesin spindle protein KSP/Eg5 (ATPase activity, malachite green); format: biochemical; settings: 10 nM KSP/Eg5, microtubuli, 500 μM ATP, 2 h at RT
T1 construct: The motor domain of the human kinesin spindle protein KSP/Eg5; purchased tebu-bio/Cytoskeleton Inc 027EG01-XL
T1 sequence (P52732 18-359 limits assumed): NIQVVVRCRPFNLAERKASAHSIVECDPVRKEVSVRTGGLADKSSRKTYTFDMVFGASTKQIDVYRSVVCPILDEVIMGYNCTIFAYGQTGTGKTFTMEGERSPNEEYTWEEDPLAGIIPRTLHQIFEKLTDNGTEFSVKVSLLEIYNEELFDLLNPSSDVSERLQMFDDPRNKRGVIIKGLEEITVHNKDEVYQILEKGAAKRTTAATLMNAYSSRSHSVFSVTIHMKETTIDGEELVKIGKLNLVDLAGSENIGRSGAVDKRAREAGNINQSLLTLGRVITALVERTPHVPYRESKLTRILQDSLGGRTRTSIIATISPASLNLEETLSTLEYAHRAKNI
Protocol: The motor domain of the human kinesin spindle protein KSP/Eg5 (tebu-bio/Cytoskeleton Inc, No. 027EG01-XL) was incubated in a concentration of 10 nM with microtubuli (bovine or porcine, tebu-bio/Cytoskeleton Inc) stabilized with 50 μg/ml taxol (Sigma No. T7191-5MG) for 5 min at RT in 15 mM PIPES, pH 6.8 (5 mM MgCl2 and 10 mM DTT, Sigma). […] Incubation was at RT for 2 h. ATPase activity was detected by detecting the inorganic phosphate formed using malachite green (Biomol). […] The positive controls used were monastrol (Sigma, M8515-1 mg) and ispinesib (AdooQ Bioscience A10486). The individual data of the dose-activity curve are eight-fold determinations. The IC50 values are means of two independent experiments.

[4] = system: KPL4: human breast cancer cell line; assay: MTT assay on KPL4; format: cell-based; settings: KPL4, 96 h, growth inhibition, 96 h incubation
Protocol: as §1, §2, §3

[5] = Assay for determination of stability in rat plasma; format: in vitro ADME; settings: 1 μg/ml, 37° C., 24 h
Protocol: To examine the stability of compounds A and B, 1 ml of rat plasma in a 1.5 ml Eppendorf tube in each case was equilibrated to 37° C. on an Eppendorf shaker. A stock solution (9 acetonitrile/1 DMSO) having a concentration of 100 μg/ml for compound A and compound B was prepared. 10 μl in each case of the stock solution were pipetted into 1 ml of equilibrated rat plasma, so as to give a concentration of 1 μg/ml.
The samples were kept at 450 rpm and 37° C. for 24 h. At each of the sampling times of 0, 0.25 h, 0.5 h, 1 h, 2 h, 4 h, 6 h and 24 h, 50 μl were taken and pipetted into 150 μl of methanol. Internal standard was included in the initial charge of methanol at a concentration of 0.05 μg/ml. After brief vortexing, 300 μl of 10 mM ammonium acetate buffer (pH 6.8) were added and centrifuged at 1881 g for 10 min. The samples were then analysed by means of RP-HPLC analysis and by LC-MS analysis.

## CC(C)(C)[C@H](c1cc(-c2cc(F)ccc2F)cn1Cc1ccccc1)N(CC[C@H](N)C(=O)NCCNC(=O)CNC(=O)CCCC(=O)NCCCC[C@H](N)C(=O)O)C(=O)CO [Example M28, N^6—{(3R,7S)-7-Amino-3-[1-benzyl-4-(2,5-difluorophenyl)-1H-pyrrol-2-yl]-4-glycoloyl-2,2-dimethyl-8,13,16,20-tetraoxo-4,9,12,15-tetraazaicosan-20-yl}-L-lysine/trifluoroacetic acid (1:1)]
[1]
  IC50: 187 nM
[2]
  IC50: 155 nM
[3]
  pIC50: 8.85
[4]
  IC50: 210 nM

## CC(C)(C)[C@H](c1cc(-c2cc(F)ccc2F)cn1Cc1ccccc1)N(CC[C@H](N)C(=O)NCCNC(=O)CCCC(=O)NCCCC[C@H](N)C(=O)O)C(=O)CO [Example M29, N^6-(5-{[2-({(2S)-2-Amino-4-[{(1R)-1-[1-benzyl-4-(2,5-difluorophenyl)-1H-pyrrol-2-yl]-2,2-dimethylpropyl} (glycoloyl)amino]butanoyl}amino)ethyl]amino}-5-oxopentanoyl)-L-lysine/trifluoroacetic acid (1:1)]
[1]
  IC50: 207 nM
[2]
  IC50: 187 nM
[3]
  pIC50: 8.69

## CNC(=O)[C@H](CCN(C(=O)CO)[C@@H](c1cc(-c2cc(F)ccc2F)cn1Cc1ccccc1)C(C)(C)C)NC(=O)[C@H](CC(N)=O)NC(=O)[C@H](C)NC(=O)[C@H](C)NC(=O)Cc1ccncc1 [Example R3r-LLL, N-(Pyridin-4-ylacetyl)-L-alanyl-L-alanyl-N^1-[(2S)-4-[{(1R)-1-[1-benzyl-4-(2,5-difluorophenyl)-1H-pyrrol-2-yl]-2,2-dimethylpropyl}(glycoloyl)amino]-1-(methylamino)-1-oxobutan-2-yl]-L-aspartamide, reference compound]
[1]
  IC50: 232 nM
[2]
  IC50: 204 nM
[3]
  pIC50: 6.79
[5]
  stability in rat plasma: stable over 24 h
